Data from patent US5627173A, “Phosphonoacetic acid derivatives and their use for treating degenerative joint disorders” (Hoechst Aktiengesellschaft, priority 1995, dated 1997).
In brackets after ≈: the same amount, converted by molar mass.

Legend:
interleukin-1β = test: Inhibition of release of interleukin-1β from human mononuclear cells; format: cell-based; conditions: 10 .parallel.mol/l (so in the source), IL-1β, LPS-stimulated, 20 to 22 hours
Procedure: Obtaining mononuclear cells from human blood: 10 ml of human blood stabilized with 1 ml of 3.8 percent sodium citrate solution were diluted with 10 ml of PM16 (Serra, Heidelberg), and an underlayer of 15 ml of Lymphoprep (Dr. Molter GmbH, Heidelberg) was introduced. The samples were centrifuged at 400 x g (Minifuge 2 Heraeus, Osterode) at room temperature for 40 minutes. The mononuclear cells were visible as a white ring at the Lymphoprep/plasma boundary. This ring was cautiously removed with a syringe, diluted with the same volume of PM16 and centrifuged at 400 x g for 10 minutes. The precipitate was washed with ^~ 10 ml of RPMI1640 (+300 mg/I L-glutamine, Gibco, Eggenstein). After the cells had been suspended in ^~ 1 ml of RPMI1640 (+300 mg/I L-glutamine, +25 mM HEPES, +100 μg/ml streptomycin, +100 μg/ml penicillin), the cell density was determined with a JT Coulter Counter (Coulter Diagnostics) and adjusted to 5.10^6 /ml. 90% of the resulting cells were lymphocytes and 10% were monocytes.
Inhibition of release of interleukin-1β: 230 μl of mononuclear cells were incubated with 10 μl of test substance (10 μM in dimethyl sulfoxide (DMSO)/water=1/10) and 10 μl of a lipopolysaccharide solution (500 μg dissolved in 1 ml of DMSO and diluted 1/10 with water before starting the test, from Salmonella abortus equi, (Sigma, Deisenhofen) at 37° C., 5% CO2 for 20 to 22 hours. The samples were cooled to 0° C. in an ice bath and centrifuged in a Sigma centrifuge (2 minutes; 2000 revolutions per minute (rpm)). Aliquots of the supernatant were determined using a commercially available ELISA 5(Biermann, Bad Nauheim).
All active substances were tested at a concentration of 10 .parallel.mol/l. IL-1β release was tested in each case.

matrix metalloproteases = test: Inhibition of matrix metalloproteases (MMP from rabbit synoviocytes HIG-82, fluorescent substrate); format: biochemical
Procedure: After confluent cell growth, the MMP expression was induced in the serum-free 3F12 HAM medium by adding 0.3 μmol/l phorbol 12-myristate 13-acetate. The supernatant was removed after incubating at 37° C. for 20 hours.
Activation of the MMP: The supernatant was activated with trypsin (5 μg/ml). After 15 minutes at 37° C., the activation was stopped by adding 1 mmol/l phenylmethylsulfonyl fluoride (PMSF) and incubating for a further 10 minutes. The total volume of the mixture was 210 μl.
The test substance was added in the stated concentration (see table). […] The reaction was stopped after 30 minutes by adding 10 mmol/l EDTA. The total-volume of the mixture was 320 μl . The parameters measured were the fluorescence intensities at […]. In order to take account of the possible intrinsic fluorescence of the test substances, the fluorescence intensities from parallel measurements without substrate were subtracted from the measurements with substrate. All the steps took place at 20° C.

[1] = system: isolated strips of guinea pig lung; test: Antagonism of LTD4-induced contraction of isolated strips of guinea pig lung; conditions: Cavia porcellus; agonist LTD4; read-out: Anticontractile effect (lung), concentration range corresponding to the IC50 value
Excerpt: (§1) The test was based on the same principle as the test indicated in Pharmacological Test 5; however, strips of lung were used in this case.
(§2) The guinea pig was sacrificed under anesthesia with laughing gas. The entire lung tract was cut out starting from the trachea. The lobes of the lungs were cut in circular fashion to produce strips about 3 mm wide. The strips of the upper lobes were divided up in order to obtain a total of six strips of approximately equal size. The strips were suspended in the organ baths under a preload of 4 g. Modified Krebs-Henseleit solutions were used as nutrient solution. When platelet activating factor (PAF) was used as agonist, the composition of this solution corresponded to that for the agonist SP in Pharmacological Test 5; a Krebs-Henseleit solution as in the case of the agonist KCI (Pharm. Test 5) was used for the agonist LTD4. 95% by volume 02, 5% by volume CO2 was bubbled through the bath, and the bath temperature was 37° C. The test is carried out by a therapeutic/cumulative method with dose levels of 1, 3, 6 and 10 μg/ml.
(§3) The test animals, organ bath, vehicle, mode of administration corresponded to that stated for Pharmacological Test 5.

[2] = system: isolated strips of guinea pig lung; test: Antagonism of PAF-induced contraction of isolated strips of guinea pig lung; conditions: Cavia porcellus; agonist PAF; read-out: Anticontractile effect (lung), concentration range corresponding to the IC50 value
Excerpt: as §1, §2, §3

[3] = system: isolated guinea pig trachea; test: Antagonism of KCl-induced contraction of the isolated guinea pig trachea; conditions: Cavia porcellus; agonist KCl; read-out: Anticontractile effect (trachea), concentration range needed to bring about a dilatation corresponding to the ED50 range
Excerpt: (§4) The compounds according to the invention are used as antagonists of the contraction of various parts of organs, in this case the isolated guinea pig trachea. The agonists used were KCl, PGF2a, calcium ionophore A23187 and substance P:
Products with a non-specific effect generally show a spasmolytic effect with respect to all agonists. KCI is representative here of non-specific, receptor-independent contraction because KCl-induced contractions are produced predominantly physically, that is to say by increasing the K+ concentration in the outside medium, and change the resting potential of the cell.
(§5) The guinea pigs were sacrificed by lethal anesthesia with laughing gas. The trachea was dissected out over its entire length and cut into 15 individual cartilage rings. In each case five rings were connected together to form a chain and fixed in an organ bath under a preload of 3 g. After an equilibration period of 45 minutes, a contraction was induced with the agonist. Cumulative addition of the antagonist (test product) took place at the plateau 5 of the maximum. Evaluation took place as % change in strength based on the maximum contraction. The test was carried out at 37° C., and the physiological nutrient solution used was a modified Krebs-Henseleit solution through which 95% by volume 02 and 5% by volume CO2 was bubbled.
(§6) Test animals: Albino guinea pigs (102), weight: 200 to 300 g, male or female
(§7) Composition of the organ bath (nutrient solution):
(§8) Vehicle: Double-distilled water, ethanol or isopropanol; Administration: into the organ bath Number of administrations: cumulative, single doses for SP

[4] = system: isolated guinea pig trachea; test: Antagonism of PGF2α-induced contraction of the isolated guinea pig trachea; conditions: Cavia porcellus; agonist PGF2α; read-out: Anticontractile effect (trachea), concentration range needed to bring about a dilatation corresponding to the ED50 range
Excerpt: as §4
Inhibition of contractions induced by this cyclooxygenase product is possible only by competitive antagonism at the receptor or of the downstream signal pathway.
as §5, §6, §7, §8

[5] = system: isolated guinea pig trachea; test: Antagonism of substance P-induced contraction of the isolated guinea pig trachea; conditions: Cavia porcellus; agonist substance P; read-out: Anticontractile effect (trachea), concentration range needed to bring about a dilatation corresponding to the ED50 range
Excerpt: as §4
Antagonism is possible on the one hand by specific receptor antagonists, and on the other hand by inhibition of the downstream signal pathway.
as §5, §6, §7, §8

CCOP(=O)(OCC)C(=Cc1ccc(OS(C)(=O)=O)c(OS(C)(=O)=O)c1)C(=O)OC(C)C [Compound 63] gave an inhibition at 10 µM (interleukin-1β) of 92%.
In the case of COc1ccc(C=C(C(=O)OC(C)C)P(=O)(OC)OC)cc1OC1CCCC1 [Compound 21], the “Inhibition of MMP, Inhibition (%)” value (matrix metalloproteases; 30 μM) was 19% and the “Inhibition of MMP, Inhibition (%)” value (matrix metalloproteases; 100 μM) was 51%.
Compound CCOP(=O)(OCC)C(Cc1ccc(OS(C)(=O)=O)c(OS(C)(=O)=O)c1)C(=O)OC(C)C (centres unmarked) [Compound 46] has an IC50 [1] of about 10 µg/mL (≈ 19.4 µM) and an IC50 [2] of 1 to 3 µg/mL (≈ 1.94 to 5.81 µM).
In the case of COc1ccc(C=C(C(=O)OC(C)C)P(=O)(O)O)cc1OC [Compound 50], the “Inhibition of MMP, Inhibition (%)” value (matrix metalloproteases; 100 μM) was 14%.
CCOP(=O)(OCC)C(C#N)=Cc1ccc(OC)c(OCc2ccc(CBr)cc2)c1 [Compound 4] gave an IC50 [1] of 3 to 6 µg/mL (≈ 6.07 to 12.1 µM) and an IC50 [2] of 1 to 3 µg/mL (≈ 2.02 to 6.07 µM).
With CCOP(=O)(OCC)C(C#N)=Cc1ccc(OC)cc1OC [Compound 44] the EC50 [3] was over 10 µg/mL, the EC50 [4] was about 6 µg/mL (≈ 18.4 µM) and the EC50 [5] was 10 to 30 µg/mL (≈ 30.7 to 92.2 µM).
CCOP(=O)(OCC)C(C#N)Cc1ccc(OC)c(OC)c1 (centres unmarked) [Compound 34, 2-(diethoxyphosphinyl)-3-(3,4-dimethoxy-phenyl)propiononitrile] showed an EC50 [3] of over 10 µg/mL, an EC50 [4] of over 10 µg/mL and an EC50 [5] of 1 to 10 µg/mL (≈ 3.06 to 30.6 µM).
Compound CCOP(=O)(OCC)C(C#N)Cc1ccc(OCc2ccccc2)c(OCc2ccccc2)c1 (centres unmarked) [Compound 11] has an EC50 [3] of over 10 µg/mL, an EC50 [4] of over 10 µg/mL and an EC50 [5] of 10 to 30 µg/mL (≈ 20.9 to 62.6 µM). It also gave an IC50 [2] of 6 to 10 µg/mL (≈ 12.5 to 20.9 µM).
COc1ccc(C=C(C(=O)OC(C)C)P(=O)(OC)OC)c(OC)c1 [Compound 32] was tested, and the “Inhibition of MMP, Inhibition (%)” value (matrix metalloproteases; 10 μM) was 12%, the “Inhibition of MMP, Inhibition (%)” value (matrix metalloproteases; 30 μM) was 22% and the “Inhibition of MMP, Inhibition (%)” value (matrix metalloproteases; 100 μM) was 52%. The inhibition at 10 µM (interleukin-1β) was 80%.
COc1cc(CC(C(=O)OC(C)C)P(=O)(OC)OC)cc(OC)c1OC (centres unmarked) [Compound 36] showed an inhibition at 10 µM (interleukin-1β) of 15%.
For CCOC(=O)C(Cc1ccc(OC(C)=O)c(OC(C)=O)c1)P(=O)(OCC)OCC (racemic) [Compound 61, Ethyl 3-(3,4-diacetoxyphenyl)-2-(diethoxyphosphinyl) propionate (rac.)], the IC50 [1] was over 10 µg/mL and the IC50 [2] was about 3 µg/mL (≈ 6.97 µM).
With COc1ccc(C=C(C(=O)OC(C)C)P(=O)(OC)OC)cc1O [Compound 26, Isopropyl 2-(dimethoxyphosphinyl)-3-(3-hydroxy-4-methoxy-phenyl)propenoate] the “Inhibition of MMP, Inhibition (%)” value (matrix metalloproteases; 10 μM) was 15%, the “Inhibition of MMP, Inhibition (%)” value (matrix metalloproteases; 100 μM) was 51% and the inhibition at 10 µM (interleukin-1β) was 59%.
COP(=O)(OC)C(=Cc1ccc2c(c1)OCO2)C(=O)OC(C)C [Compound 42] was tested, and the inhibition at 10 µM (interleukin-1β) was 77%, the IC50 [1] was over 10 µg/mL and the IC50 [2] was 3 to 6 µg/mL (≈ 8.76 to 17.5 µM).
COc1cc(C=C(C(=O)OC(C)C)P(=O)(OC)OC)cc(OC)c1 [Compound 28] was tested, and the “Inhibition of MMP, Inhibition (%)” value (matrix metalloproteases; 100 μM) was 9%.
